In US5032595A, “Method of stimulating steroidogenesis with alpidem” (FIDIA-Georgetown Institute for the Neurosciences, priority 1989, dated 1991):

Legend:
[1] = tested on: purified rat Leydig cells; assay: Testosterone production by purified rat Leydig cells, basal and hCG stimulated
[2] = biological target: T1, peripheral-type benzodiazepine receptor (PBR) in Y-1 cells (Mus musculus, UniProt P50637); assay: [3H]PK 11195 binding in Y-1 adrenocortical cells; details: 37° C., FIG. 2a
T1 construct: Y-1 cell cultures were scraped from the flasks; host or cells: Y-1 mouse adrenal tumor cells
T1 sequence (P50637 whole entry): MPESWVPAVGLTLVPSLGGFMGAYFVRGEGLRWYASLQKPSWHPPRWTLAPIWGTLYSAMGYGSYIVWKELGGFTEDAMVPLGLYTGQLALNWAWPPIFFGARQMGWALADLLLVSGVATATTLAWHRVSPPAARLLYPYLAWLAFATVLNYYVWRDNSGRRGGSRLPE
Method: (§1) Cells--The Y-1 adrenal mouse tumor cell line used in these studies was obtained from the American Type Culture Collection (ATCC #CCL 79). Stock cultures were grown in modified Waymouth's MB752/l medium containing 20 mM HEPES, 1.2 g/l NaHCO3, 15% horse serum and 2.5% fetal calf serum, pH 7.4. Before use the cells were washed three times at 30 min intervals, with serum-free media in order to eliminate serum components that may interfere with the assays and were incubated for the indicated time periods in the presence of the drugs under investigation. Bovine fasciculata-reticularis and adrenocortical cells from adult (300 g) Sprague-Dawley rats were prepared as previously described by Yanagibashi et al, (1989) Endocrinology 124; 2838-2391.
Radioligand binding assays--Y-1 cell cultures were scraped from the flasks ([…]) in 5 ml of Kreb's buffer, dispersed by repetitive pipetting, and centrifuged at 1,200 × g for 5 min. The cell pellets were resuspended in Kreb's buffer and larger cellular aggregates were allowed to settle for 5 min. The finely dispersed cell suspensions were taken for further experimentation.
Binding assays were performed in a total volume of 250-400 ul of Kreb's buffer containing [^3 H]PK 11195 (0.07-20 nM) with 5 ug of cellular protein. Incubations were conducted at 37° C. for 30 min and bound radioligand was measured by filtration through Whatman GF/C filters followed by four rapid 5 ml washes with 25 mM Tris-HCl (pH 7.4) containing 1 uM PK 11195. Filters were subjected to liquid scintillation counting. Nonspecific binding was measured in the presence (of 10 uM nonradioactive PK 11195.

rat adrenocortical cells = assay: Corticosterone secretion in dissociated rat adrenocortical cells; type: cell-based; details: rat adrenocortical cell suspensions, FIG. 5a
Method: as §1
Measurement of steroid production--These experiments were performed with the Y-1 cells plated in 12--22 mm wells and incubated for the times shown at a final volume of 1 ml of serum-free media at 37° C. […] Steroid production was determined by measuring 20-γ-hydroxyprogesterone, the main steroid product of these cells, using a radioimmunoassay with an antibody donated by Dr. G. Nieswender (Univ. of Colorado, Fort Collins), under the process described in Kowal J. (1970), Recent Progress in Hormone Research 26, 623-687 and Schimmer B.P. (1981) in Functionally Differentiated Cell Lines, ed. […]

CN1C(=O)CN=C(c2ccc(Cl)cc2)c2cc(Cl)ccc21 [Ro5-4864, 4'-chlorodiazepam]
Testosterone, No Additions ([1]; compound 10^-5 M, basal, 4 hours at 32° C., mean ± S.D. n = 3, control 1.30 ± 0.20): 2.40 ± 0.30 ng/10^5 cel s/4 hours
Testosterone, hCG (50 ng/ml) ([1]; compound 10^-5 M, hCG 50 ng/ml, 4 hours at 32° C., mean ± S.D. n = 3, control 15.13 ± 2.05): 14.10 ± 2.26 ng/10^5 cel s/4 hours
stimulation of testosterone production ([1]; purified rat Leydig cells, basal, 240 min): about 2 fold
rank order of compound displacement potency against [3H]PK 11195 binding [2]: alpidem>PK 11195>PK 14067>4'-chlorodiazepam>zolpidem>PK 14608, diazepam>flunitrazepam>clonazepam>flumazenil
stimulation of steroid production (corticosterone), in words (rat adrenocortical cells): much more potent at stimulating steroidogenesis in rat adrenocortical cells when compared with bovine preparations
